The record followed here is PubChem BioAssay (NCI).

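Method: 48-hour compound exposure of cells in 96-well plates, five concentrations, linear interpolation of endpoints. TGI: concentration producing complete growth inhibition.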 Where only a bound is given, the exact number is not on record here.

Experiment in all cases: NCI-60 cell line screen, 48 h
Test [1] deals with SK-MEL-28 melanoma.
The subject of test [2] is MALME-3M melanoma.
Test [3] deals with HOP-62 NSCLC.
The test system of test [4] is BT-549 breast.
In test [5] the test system is NCI-H460 lung.
The test system of test [6] is OVCAR-3 ovarian.
Test [7] deals with CAKI-1 renal.
The test system of test [8] is NCI-H23 lung.
The test system of test [9] is SR leukemia.
Test [10] concerns NCI-H522 lung.

For `COc1cc(Cc2cc3c(c(C(=O)O)c2Br)OCO3)cc(OC)c1OC`, the TGI in [1], in [2], in test [3], in [4], in test [5] and in [6] was greater than 100 µM in each case. Besides, the TGI in test [7] is greater than 100 µM; in test [8] it was greater than 100 µM; in [9] it was 89 µM.
`COc1cc2c(/C=C3/C(=O)N(C)c4ccccc43)c(Cl)[nH]c2cc1C`: the TGI was greater than 100 µM in [1]; 3.56 µM in [3]; 3.64 µM in test [4]; 0.518 µM in test [10]; 1.36 µM in [5]; 0.929 µM in test [6]. Moreover, the TGI in [7] was greater than 52.8 µM; in test [8], 1.55 µM; in test [9] it was 10.2 µM.
As for `CCC(C#N)(c1ccccc1)N(CCc1ccccc1)C(=O)c1ccccc1` (stereo not given), the TGI was greater than 100 µM in test [1]; greater than 100 µM in [2]; 50.8 µM in test [3]; greater than 100 µM in test [4]; greater than 100 µM in test [10]; greater than 100 µM in test [6]. The TGI in test [7], in test [8] and in test [9] was greater than 100 µM in each case.
`CC(=O)Nc1ccc(Nc2cc(=O)[nH]c(=O)[nH]2)cc1`: the TGI in test [1], in [2], in test [3], in [4], in test [5] and in test [6] was greater than 100 µM in each case. For the same compound, the TGI in test [9] was greater than 100 µM.
With `C=CCOC(=O)N1[C@H]2C#C/C=C\C#C[C@]3(O)C(=O)C[C@H](C)[C@]24O[C@]43C2=CC(=O)C=CC21OC` (stereo not given in full), the TGI in [1] is greater than 100 µM; in test [2], greater than 100 µM; in test [3], greater than 100 µM; in test [10] it was 48.5 µM; in test [5], 47.8 µM; in test [7], greater than 100 µM. In addition, the TGI in test [8] is greater than 100 µM; in test [9], 29.9 µM.
For `NNC(=O)CSc1nc2ccc(I)cc2c(=O)n1Cc1ccccc1`, the TGI in test [1] is 80.5 µM; in [3] it was 43.9 µM; in test [4] it was 42.6 µM; in test [10], 30.7 µM; in [5], 44.7 µM; in test [6] it was 54.9 µM. The results for the TGI in [7], in test [8] and in test [9] were 40.2 µM, 74.7 µM and 61.2 µM, respectively.
With `CC(C)(C)c1cc(CC2C(=O)c3ccccc3C2=O)cc(C(C)(C)C)c1O`, the TGI was 9.08 µM in test [3]; 18.1 µM in test [4]; 14.4 µM in [10]; 43.3 µM in test [5]; 9.53 µM in [6]; 20.4 µM in test [7]. Further, the TGI in test [8] was greater than 100 µM; in test [9], 16.6 µM.
In the case of `COC(=O)CCc1cc(OC)c(O)c(C(Cc2ccc(OC)c(OC)c2)C(=O)OC)c1` (stereo not given), the TGI in test [1], in test [2], in test [3], in test [4], in [10] and in [5] was greater than 100 µM in each case. Also, the TGI in test [6], in [8] and in test [9] was greater than 100 µM in each case.
As for `C=C(CN(C)C)C(=O)c1ccccc1C`, the TGI in test [1] was 62.4 µM; in test [2] it was 36 µM; in test [3] it was greater than 100 µM; in test [10], 12.3 µM; in test [5] it was greater than 100 µM; in test [6], greater than 58.7 µM. The TGI was 62.6 µM in test [7], greater than 100 µM in test [8] and 47.2 µM in test [9].
Consider `NC(=O)c1nnc2ccc(F)cc2c1N`, for which the TGI in [2], in test [3], in test [4], in test [10], in [5] and in [6] was greater than 100 µM in each case. The TGI in test [7], in test [8] and in [9] was greater than 100 µM in each case.
With `CCCCCC(C)(C)CCC(=O)OC1OC(COC2OC(COC3OC(CO)C(O)C(O)C3O)C(O)C(O)C2O)C(O)C(O)C1O` (stereo not given), the TGI in test [2], in [3], in [4], in test [10], in [5] and in test [6] was greater than 100 µM each time. The TGI in test [8] and in test [9] was greater than 100 µM each time.
In the case of `Cc1cc(N(CCC#N)CCC#N)ccc1/C(N=Nc1ccc(Cl)cc1)=N\NC(=O)c1cc(Cl)ccc1O`, the TGI was greater than 100 µM in test [2]; 56.6 µM in test [3]; greater than 100 µM in [4]; 37 µM in [10]; greater than 100 µM in test [5]; 66.2 µM in test [6]. Moreover, the TGI in [7], in test [8] and in test [9] was greater than 100 µM in each case.
For `CCOC(=O)C1(C(N)=O)C(=O)c2ccncc2C1=O` (stereo not given), the TGI in [1], in test [2], in test [4], in test [10], in test [5] and in test [6] was greater than 100 µM each time. For the same compound, the TGI in [7], in test [8] and in [9] was greater than 100 µM each time.
For `Cc1c2c(c(C)n1-c1ccccc1)C(=O)N(CCCCN1CCN(c3ccccc3)CC1)C2=O`, the TGI in test [2] was determined as 20.9 µM; in [3], 36.1 µM; in test [4], 49.3 µM; in test [10], 39.4 µM; in test [5], 47.4 µM; in test [6], 88.5 µM. Further, the TGI in [7] was greater than 100 µM; in [8], 48.5 µM; in [9], 27 µM.
With `C=CCn1c(=O)c2ccccc2[n+]2c(C)c(C(=O)OCC)sc12`, the TGI in [1], in test [3], in test [4], in test [10], in test [5] and in [6] was greater than 100 µM throughout. In addition, the TGI in [7], in test [8] and in [9] was greater than 100 µM throughout.
